This passage reports TGI results from PubChem BioAssay (NCI).

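Cultured in 96-well plates, cells were exposed to test compound for 48 hours across five concentrations. At the TGI there is no net growth.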

Some test systems named below: SF-268 CNS; UACC-62 melanoma; SK-OV-3 ovarian; MDA-N; UACC-257 melanoma; NCI-H460 lung; RXF 393 renal; NCI-H23 lung; HL-60(TB) leukemia.
Assay in all cases: NCI-60 cell line screen, 48 h

`COC1=C(OC)C(=O)C(Cc2c(-c3ccccc3)nc3sc(Cl)cn23)=C(C)C1=O`: the TGI in the test with SF-268 CNS was determined as 41.2 µM; in the test with UACC-62 melanoma, 24.6 µM; with SK-OV-3 ovarian, 37.8 µM; with MDA-N, 34.2 µM; with UACC-257 melanoma, 29.9 µM; in the test with NCI-H460 lung, 40 µM. Also, the TGI was 33.3 µM in the test on RXF 393 renal, 35.8 µM with NCI-H23 lung and 24.7 µM in the test on HL-60(TB) leukemia.

Regarding `O=C(O)C1C2OC(C(Br)C2Br)C1C(=O)O` (centres undefined), the TGI with SF-268 CNS, in the test with UACC-62 melanoma, in the test on SK-OV-3 ovarian, in the test on MDA-N, in the test on UACC-257 melanoma and with NCI-H460 lung was greater than 100 µM throughout. For the same compound, the TGI in the test with RXF 393 renal, with NCI-H23 lung and in the test on HL-60(TB) leukemia was greater than 100 µM each time.

As to `Cc1cc(C)n(C(C)(C(=O)Cc2ccccc2)n2nc(C)cc2C)n1`, the TGI in the test with SF-268 CNS, in the test on UACC-62 melanoma, in the test with SK-OV-3 ovarian, in the test on MDA-N, in the test with NCI-H460 lung and in the test on RXF 393 renal was greater than 100 µM each time. Further, the TGI with NCI-H23 lung and in the test on HL-60(TB) leukemia was greater than 100 µM each time.

As to `CCCCCCCCCCCCCCCCOC[C@H](COC(c1ccccc1)(c1ccccc1)c1ccccc1)O[P+](=S)OC` (some centres undefined), the TGI in the test on SF-268 CNS, in the test with UACC-62 melanoma, with SK-OV-3 ovarian, in the test on MDA-N, in the test on UACC-257 melanoma and with NCI-H460 lung was greater than 100 µM throughout. The TGI in the test on RXF 393 renal, in the test on NCI-H23 lung and in the test with HL-60(TB) leukemia was greater than 100 µM each time.

On to `CN(CC(=O)O)c1ncc2c(n1)-c1ccccc1CC2`, for which the TGI in the test on SF-268 CNS, with UACC-62 melanoma, in the test on SK-OV-3 ovarian, in the test on MDA-N, in the test on UACC-257 melanoma and in the test with NCI-H460 lung was greater than 100 µM each time. Moreover, the TGI with RXF 393 renal, with NCI-H23 lung and with HL-60(TB) leukemia was greater than 100 µM in each case.

For `C=C(CCC(=O)N(CCc1c[nH]c2ccccc12)C(=O)c1ccccc1CSCC)C(=O)OC`, the TGI in the test on SF-268 CNS, in the test with UACC-62 melanoma, with SK-OV-3 ovarian, in the test on MDA-N, with UACC-257 melanoma and in the test with NCI-H460 lung was greater than 100 µM each time. For the same compound, the TGI in the test with RXF 393 renal, with NCI-H23 lung and with HL-60(TB) leukemia was greater than 100 µM throughout.

Turning to `N#Cc1cc2c(n(C3OC(CO)C(O)C(O)C3O)c1=S)CCC2` (centres undefined), the TGI in the test on SF-268 CNS, in the test on UACC-62 melanoma, in the test with MDA-N, in the test with UACC-257 melanoma, in the test on NCI-H460 lung and in the test on RXF 393 renal was greater than 100 µM each time. Also, the TGI in the test with NCI-H23 lung and in the test on HL-60(TB) leukemia was greater than 100 µM throughout.

`COc1ccccc1-c1cc(=O)c2cccnc2[nH]1`: the TGI in the test with SF-268 CNS is greater than 100 µM; with UACC-62 melanoma it was greater than 100 µM; with SK-OV-3 ovarian, greater than 100 µM; in the test on MDA-N, 56.7 µM; in the test on UACC-257 melanoma, greater than 100 µM; in the test on NCI-H460 lung, greater than 100 µM. Moreover, the TGI in the test with RXF 393 renal, with NCI-H23 lung and in the test on HL-60(TB) leukemia was greater than 100 µM each time.

For `CCOC1OC(C)(C=C(C#N)C#N)CCC1C` (centres undefined), the TGI in the test with SF-268 CNS was greater than 100 µM; in the test with UACC-62 melanoma, greater than 100 µM; in the test with SK-OV-3 ovarian, greater than 100 µM; in the test with MDA-N it was greater than 100 µM; in the test on UACC-257 melanoma it was greater than 100 µM; with NCI-H460 lung, 98.7 µM. Besides, the TGI in the test on RXF 393 renal was greater than 91.7 µM; in the test on NCI-H23 lung, greater than 100 µM; in the test with HL-60(TB) leukemia, 80.4 µM.

In the case of `Clc1ccc(-c2nn3c(COc4ccc(OCc5nnc6sc(-c7ccc(Cl)cc7)nn56)c(Cl)c4)nnc3s2)cc1`, the TGI in the test on SF-268 CNS was 35.6 µM; with UACC-62 melanoma, greater than 100 µM; with SK-OV-3 ovarian, greater than 100 µM; with MDA-N, 67.2 µM; in the test on UACC-257 melanoma, greater than 100 µM; in the test on NCI-H460 lung, greater than 100 µM. Further, the TGI was determined as 44.1 µM in the test with RXF 393 renal, 62.3 µM in the test with NCI-H23 lung and 36 µM with HL-60(TB) leukemia.

For the compound `CC[P+](c1ccccc1)(N(C)C)N(C)C`, the TGI with SF-268 CNS, in the test on UACC-62 melanoma, in the test on SK-OV-3 ovarian, in the test on MDA-N, in the test with UACC-257 melanoma and in the test with NCI-H460 lung was greater than 100 µM in each case. The TGI with RXF 393 renal, in the test on NCI-H23 lung and in the test with HL-60(TB) leukemia was greater than 100 µM in each case.

As for `COc1cc(/C=C2\C(=O)N(c3ccc(Cl)cc3)C(c3ccccc3)S2(=O)=O)cc(OC)c1OC` (centres undefined), the TGI is greater than 100 µM with SF-268 CNS; greater than 63.6 µM in the test on UACC-62 melanoma; greater than 100 µM in the test on SK-OV-3 ovarian; 20.1 µM in the test on MDA-N; greater than 100 µM in the test on UACC-257 melanoma; greater than 100 µM in the test on NCI-H460 lung. The TGI in the test on RXF 393 renal, with NCI-H23 lung and in the test on HL-60(TB) leukemia was greater than 100 µM throughout.

As for `COC(=O)c1c2c(cc3c1CC1(Cc4cc5c(cc4C1)CCCC5)C3)CCCC2`, the TGI in the test on UACC-62 melanoma is greater than 100 µM; in the test on SK-OV-3 ovarian, greater than 100 µM; in the test with MDA-N it was greater than 100 µM; in the test on UACC-257 melanoma, greater than 100 µM; in the test on RXF 393 renal, 67.3 µM; in the test on NCI-H23 lung, greater than 100 µM. Moreover, the TGI in the test with HL-60(TB) leukemia was greater than 100 µM.

Regarding `CC1OC23CCCCC2C(C#N)(C#N)C1(C#N)C(=N)O3` (centres undefined), the TGI in the test on SF-268 CNS is 60.3 µM; with SK-OV-3 ovarian, greater than 100 µM; in the test on MDA-N, 35.8 µM; with UACC-257 melanoma it was 37.6 µM; in the test with NCI-H460 lung, 43.5 µM; in the test with RXF 393 renal it was 44.5 µM. Besides, the TGI in the test on NCI-H23 lung was found to be 52.7 µM; with HL-60(TB) leukemia, 22.1 µM.

As for `c1ccc(CN2CCC(CNc3ncnc4ccccc34)C2)cc1` (centres undefined), the TGI in the test on SF-268 CNS, in the test on UACC-62 melanoma, with SK-OV-3 ovarian, in the test on MDA-N, in the test with NCI-H460 lung and with RXF 393 renal was greater than 100 µM each time. For the same compound, the TGI with NCI-H23 lung and in the test on HL-60(TB) leukemia was greater than 100 µM throughout.
